The record followed here is US8912121B2, “Herbicidal compositions comprising 4-amino-3-chloro-5-fluoro-6-(4-chloro-2-fluoro-3-methoxyphenyl)pyridine-2-carboxylic acid or a derivative thereof and certain PS II inhibitors” (Dow Agrosciences LLC, priority 2012, dated 2014).

Molecules are shown by their SMILES.

What all share (experiment): Postemergence foliar-applied mixtures, direct seeded rice, greenhouse
Assay [1] has as its system ECHCO (Echinochloa colona, junglerice). Type of assay: in vivo, Echinochloa colona (L.) Link. From the text: (§1) Seeds or nutlets of the desired test plant species were planted in a soil matrix prepared by mixing a loam or sandy loam soil (e.g., 28.6 percent silt, 18.8 percent clay, and 52.6 percent sand, with a pH of about 5.8 and an organic matter content of about 1.8 percent) and calcareous grit in an 80 to 20 ratio. The soil matrix was contained in plastic pots with a volume of 1 quart and a surface area of 83.6 square centimeters (cm^2). When required to ensure good germination and healthy plants, a fungicide treatment and/or other chemical or physical treatment was applied. The plants were grown for 8-22 days in a greenhouse with an approximate 14 h photoperiod which was maintained at about 29° C. during the day and 26° C. during the night. Nutrients (Peters Excel® 15-5-15 5-Ca 2-Mg and iron chelate) were applied in the irrigation solution as needed and water was added on a regular basis. Supplemental lighting was provided with overhead metal halide 1000-Watt lamps as necessary. The plants were employed for testing when they reached the first through fourth true leaf stage.
(§2) Treatments consisted of the acid or esters of 4-amino-3-chloro-5-fluoro-6-(4-chloro-2-fluoro-3-methoxy-phenyl) pyridine-2-carboxylic acid (Compound A), each formulated as an SC (suspension concentrate), and various herbicidal components alone and in combination. Forms of compound A were applied on an acid equivalent basis.
(§3) Other herbicidal components were applied on an active ingredient basis and included Photosystem II (PSII)-inhibiting herbicides propanil formulated as Stam® M4 EC, bentazon-sodium formulated as Basagran®, atrazine formulated as Atrazine 90 WDG, bromoxynil octanoate ester formulated as Buctril®, simetryne (technical grade material), simazine formulated as Princep® Caliber 90, ioxynil (technical grade material), cyanazine (technical grade material), and hexazinone (technical grade material).
(§4) Treatment requirements were calculated based upon the rates being tested, the concentration of active ingredient or acid equivalent in the formulation, and a 12 mL application volume at a rate of 187 L/ha.
(§5) For treatments comprised of formulated compounds, measured amounts of compounds were placed individually in 25 mL glass vials and diluted in a volume of 1.25% (v/v) Agri-Dex® crop oil concentrated to obtain 12× stock solutions. […] Application solutions were prepared by adding an appropriate amount of each stock solution (e.g., 1 mL) and diluted to the appropriate final concentrations with the addition of 10 mL of an aqueous mixture of 1.25% (v/v) crop oil concentrate so that the final spray solutions contained 1.25+/−0.05% (v/v) crop oil concentrate.
(§6) For treatments comprised of technical compounds, weighed amounts can be placed individually in 25 mL glass vials and dissolved in a volume of 97:3 v/v acetone/DMSO to obtain 12× stock solutions. […] Application solutions can be prepared by adding an appropriate amount of each stock solution (e.g., 1 mL) and diluted to the appropriate final concentrations with the addition of 10 mL of an aqueous mixture of 1.5% (v/v) crop oil concentrate so that the final spray solutions contain 1.25% (v/v) crop oil concentrate. When technical materials are used, the concentrated stock solutions can be added to the spray solutions so that the final acetone and DMSO concentrations of the application solutions are 16.2% and 0.5%, respectively.
(§7) For treatments comprised of formulated and technical compounds, weighed amounts of the technical materials were placed individually in 25 mL glass vials and dissolved in a volume of 97:3 v/v acetone/DMSO to obtain 12× stock solutions, and measured amounts of the formulated compounds were placed individually in 25 mL glass vials and diluted in a volume of 1.5% (v/v) crop oil concentrate or water to obtain 12× stock solutions. […]

The test system of assay [2] is ECHCG (Echinochloa crusgalli, barnyardgrass). The format is in vivo, Echinochloa crusgalli (L.) Beauv. As for the experimental part:
as §1, with “When required to ensure good germination and healthy plants, a fungicide treatment and/or other chemical or physical treatment was applied.” left out
as §2, §3, §5, §6
For treatments comprised of formulated and technical compounds, weighed amounts of the technical materials were placed individually in 25 mL glass vials and dissolved in a volume of 97:3 v/v acetone/DMSO to obtain 12× stock solutions, and measured amounts of the formulated compounds were placed individually in 25 mL glass vials and diluted in a volume of 1.5% (v/v) crop oil concentrate or water to obtain 12× stock solutions. […] Application solutions were prepared by adding an appropriate amount of each stock solution (eg, 1 mL) and diluted to the appropriate final concentrations with the addition of an appropriate amount of an aqueous mixture of 1.5% (v/v) crop oil concentrate so that the final spray solutions contained 1.25% (v/v) crop oil concentrate.

For assay [3], the system named is BRAPP (Brachiaria platyphylla, broadleaf signalgrass). Type of assay: in vivo, Brachiaria platyphylla (Griseb.) Nash.
From the text: as §1, §2, §3, §4, §5, §6, §7

The subject of assay [4] is IPOHE (Ipomoea hederacea, ivyleaf morningglory). The format is in vivo, Ipomoea hederacea Jacq. The settings on record: post-emergence, read-out: Visual Weed Control (%) Obs. The procedure, abridged: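 Greenhouse plants in loam/grit soil (about 29/26°C, 14 h photoperiod) sprayed post-emergence at first to fourth true leaf stage at 187 L/ha. Compound A dosed as acid equivalent, partner PSII herbicides as active ingredient, alone and in mixtures, in spray solutions containing 1.25% crop oil concentrate.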

In the case of `CCNc1nc(Cl)nc(NC(C)C)n1` [Atrazine, 6-chloro-N-ethyl-N′-(1-methylethyl)-1,3,5-triazine-2,4-diamine, reference compound], the “Visual Weed Control (%) Obs” value turned out to be 10% in assay [1] (280 g ai/ha, 22 DAA); 10% in assay [1] (560 g ai/ha, 22 DAA); 60% in assay [1] (1120 g ai/ha, 22 DAA); 0% in assay [2] (280 g ai/ha, 22 DAA); 20% in assay [2] (560 g ai/ha, 22 DAA); 70% in assay [2] (1120 g ai/ha, 22 DAA). Further, the “Visual Weed Control (%) Obs” value was 0% in assay [3] (280 g ai/ha, 22 DAA) and 0% in assay [3] (560 g ai/ha, 22 DAA).
In the case of `COc1c(Cl)ccc(-c2nc(C(=O)O)c(Cl)c(N)c2F)c1F` [Compound A Acid, 4-amino-3-chloro-6-(4-chloro-2-fluoro-3-methoxyphenyl)-5-fluoropyridine-2-carboxylic acid], the pest or weed control at 19.4 g/ha in assay [4] (480 h, 19.4 g ae/ha, 20 DAA) was 15%. Moreover, in assay [4] (480 h, 21.2 g ae/ha, 20 DAA), the pest or weed control at 21.2 g/ha was found to be 35%. Further, the pest or weed control at 42.4 g/ha in assay [4] (480 h, 42.4 g ae/ha, 20 DAA) was 55%. Besides, the pest or weed control at 4.38 g/ha in assay [4] (504 h, 4.38 g ae/ha, 21 DAA) came to 15%. For the same compound, the pest or weed control at 8.75 g/ha in assay [4] (504 h, 8.75 g ae/ha, 21 DAA) was 35%. Also, the “Visual Weed Control (%) Obs” value stood at 43% in assay [1] (4.38 g ae/ha, 21 DAA); 20% in assay [1] (4.38 g ae/ha, 22 DAA); 63% in assay [1] (8.75 g ae/ha, 21 DAA); 33% in assay [2] (4.38 g ae/ha, 21 DAA); 20% in assay [2] (4.38 g ae/ha, 22 DAA); 55% in assay [2] (8.75 g ae/ha, 21 DAA). Also, the “Visual Weed Control (%) Obs” value in assay [3] (4.38 g ae/ha, 22 DAA) was 45%; in assay [3] (8.75 g ae/ha, 22 DAA) it was 70%.
In the case of `CCC(=O)Nc1ccc(Cl)c(Cl)c1` [Propanil, N-(3,4-dichlorophenyl)propanamide, reference compound], the pest or weed control at 3360 g/ha in assay [4] (480 h, 3360 g ai/ha, 20 DAA) was 40%. Besides, the pest or weed control at 420 g/ha in assay [4] (504 h, 420 g ai/ha, 21 DAA) is 0%. For the same compound, the pest or weed control at 840 g/ha in assay [4] (504 h, 840 g ai/ha, 21 DAA) came to 0%. Besides, the pest or weed control at 1680 g/ha in assay [4] (504 h, 1680 g ai/ha, 21 DAA) was 0%. The “Visual Weed Control (%) Obs” value stood at 10% in assay [1] (420 g ai/ha, 21 DAA); 25% in assay [1] (840 g ai/ha, 21 DAA); 25% in assay [1] (1680 g ai/ha, 21 DAA); 10% in assay [2] (420 g ai/ha, 21 DAA); 10% in assay [2] (840 g ai/ha, 21 DAA); 40% in assay [2] (1680 g ai/ha, 21 DAA).
With `CCNc1nc(Cl)nc(NCC)n1` [Simazine, 6-chloro-N,N′-diethyl-1,3,5-triazine-2,4-diamine, reference compound], the “Visual Weed Control (%) Obs” value is reported as 0% in assay [1] (560 g ai/ha, 20 DAA); 0% in assay [1] (1120 g ai/ha, 20 DAA); 0% in assay [1] (2240 g ai/ha, 20 DAA); 0% in assay [2] (560 g ai/ha, 20 DAA); 0% in assay [2] (1120 g ai/ha, 20 DAA); 0% in assay [2] (2240 g ai/ha, 20 DAA). The “Visual Weed Control (%) Obs” value in assay [3] (560 g ai/ha, 20 DAA) was 0%; in assay [3] (1120 g ai/ha, 20 DAA), 0%; in assay [3] (2240 g ai/ha, 20 DAA), 0%.
